Tests used:
HTU-LOX (HTU-QV variant) = target: T1, HTU-LOX (HTU-QV variant) (Haloterrigena turkmenica, UniProt D2RU96); test: Amplex red / horseradish peroxidase fluorometric H2O2 release assay; assay type: biochemical; conditions: inhibitor, bought as fumarate salt; 0.1 mM used as negative control; 0.1 M borate pH 8.3, 37 °C
T1 construct: gene Htur_0264; delta1-91, catalytic domain, N-terminus Gln92-Val; His-tag kept (pQE-30); full-length protein 308 residues, 33,829 Da

HTU-LOX (HTU-AA variant) = target: T2, HTU-LOX (HTU-AA variant) (Haloterrigena turkmenica, UniProt D2RU96); test: as above; assay type: biochemical; conditions: 0.1 M borate pH 8.3, 37 °C; Cu2+-refolded enzyme
T2 construct: gene Htur_0264; delta1-34, signal peptide removed, N-terminus Ala35-Ala; His-tag kept (pQE-30); full-length protein 308 residues
T2 sequence (D2RU96 35-296): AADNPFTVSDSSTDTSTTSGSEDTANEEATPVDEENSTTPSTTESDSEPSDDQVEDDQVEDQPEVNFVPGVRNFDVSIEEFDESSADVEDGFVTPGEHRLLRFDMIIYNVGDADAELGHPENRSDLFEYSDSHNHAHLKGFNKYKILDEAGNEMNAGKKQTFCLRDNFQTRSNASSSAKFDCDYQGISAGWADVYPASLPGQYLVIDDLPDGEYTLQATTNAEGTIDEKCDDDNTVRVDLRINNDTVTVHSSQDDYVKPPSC

| Structure (SMILES) | Amplex red / horseradish peroxidase fluorometric H2O2 release assay (HTU-LOX (HTU-QV variant)) | Amplex red / horseradish peroxidase fluorometric H2O2 release assay (HTU-LOX (HTU-AA variant)) |
| --- | --- | --- |
| N#CCCN [3-aminopropionitrile] | HTU-LOX demonstrated good sensitivity to the classical inhibitor of all LOXes—3-aminopropionitrile (BAPN) | – |
| NCCc1c[nH]cn1 [histamine] | – | Refolded proteins HTU-QV and HTU-AA exhibit activity against a wide variety of primary amines |

From publication PMC6452851, “Properties of a cryptic lysyl oxidase from haloarchaeon Haloterrigena turkmenica” (PeerJ, 2019)
